Values joined by “and” are separate entries in the source; they are usually repeats but may differ in a detail not shown here. Equal entries are not always repeated. Inconclusive results and toxic doses are left out. Rule for the calls: active = survival T/C of 150% or more; inactive = T/C below 125% in these data. Peptide text beside a SMILES is read from it.
System: P388 leukemia ip, CD2F1 mice, survival T/C
Test: NCI In Vivo Anticancer Drug Screen. Data for tumor model P388 Leukemia (intraperitoneal) in CD2F1 (CDF1) mice
Conditions: endpoint: median survival time, higher = longer survival
In short: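 Mice carrying the transplanted tumor received test compound or vehicle. Survival was recorded in each group, and the value is the treated-group measurement divided by that of the vehicle-treated control group.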

[1] = dose: 12.5 mg/kg/injection, schedule: Q01DX009 (ip), vehicle: Klucel (hydroxypropylcellulose) (HPC)
[2] = dose: 12.5 mg/kg/injection, schedule: Q04DX003 (ip), vehicle: Klucel (hydroxypropylcellulose) (HPC)
[3] = dose: 25.0 mg/kg/injection, schedule: Q01DX009 (ip), vehicle: Klucel (hydroxypropylcellulose) (HPC)
[4] = dose: 50.0 mg/kg/injection, schedule: Q01DX009 (ip), vehicle: Klucel (hydroxypropylcellulose) (HPC)
[5] = dose: 50.0 mg/kg/injection, schedule: Q04DX003 (ip), vehicle: Klucel (hydroxypropylcellulose) (HPC)
[6] = dose: 100.0 mg/kg/injection, schedule: Q01DX009 (ip), vehicle: Klucel (hydroxypropylcellulose) (HPC)
[7] = dose: 50.0 mg/kg/injection, schedule: Q01DX009 (ip), vehicle: saline
[8] = dose: 100.0 mg/kg/injection, schedule: Q01DX009 (ip), vehicle: saline
[9] = dose: 200.0 mg/kg/injection, schedule: Q01DX009 (ip), vehicle: saline
[10] = dose: 60.0 mg/kg/injection, schedule: Q01DX005 (ip), vehicle: saline
[11] = dose: 120.0 mg/kg/injection, schedule: Q01DX005 (ip), vehicle: saline
[12] = dose: 240.0 mg/kg/injection, schedule: Q01DX005 (ip), vehicle: saline

Measured: T/C

COc1ccc2c(oc(=O)c3c(Cl)nc(C)c(C)c32)c1OC
inactive: [1] 98 % of control | [2] 100 % of control | [3] 98 % of control | dose: 25.0 mg/kg/injection, schedule: Q04DX003 (ip), vehicle: Klucel (hydroxypropylcellulose) (HPC) 102 % of control | [4] 98 % of control | [5] 94 % of control | [6] 97 % of control | dose: 100.0 mg/kg/injection, schedule: Q04DX003 (ip), vehicle: Klucel (hydroxypropylcellulose) (HPC) 90 % of control | dose: 200.0 mg/kg/injection, schedule: Q01DX009 (ip), vehicle: Klucel (hydroxypropylcellulose) (HPC) 97 % of control | dose: 200.0 mg/kg/injection, schedule: Q04DX003 (ip), vehicle: Klucel (hydroxypropylcellulose) (HPC) 90 % of control

CC1=C(C)C(=O)O[C@@H]([C@](C)(O)[C@]2(O)CC[C@@]3(O)[C@@H]4C[C@H]5O[C@]56CC=CC(=O)[C@]6(C)[C@H]4CC[C@]23C)C1
inactive: [1] 109 % of control and 110 % of control | [2] 122 % of control | [3] 107 % of control and 124 % of control | [4] 100 % of control | [5] 124 % of control

COC1/C=C\CC2=CCCC=C2CC1 (stereo not given)
inactive: dose: 25.0 mg/kg/injection, schedule: Q01DX009 (sc), vehicle: olive oil, sesame oil, peanut oil 100 % of control | dose: 50.0 mg/kg/injection, schedule: Q01DX009 (sc), vehicle: olive oil, sesame oil, peanut oil 97 % of control | dose: 100.0 mg/kg/injection, schedule: Q01DX009 (sc), vehicle: olive oil, sesame oil, peanut oil 97 % of control | dose: 200.0 mg/kg/injection, schedule: Q01DX009 (sc), vehicle: olive oil, sesame oil, peanut oil 95 % of control

C[As](C)SC1CCC2(C)C(=CCC3C4CCC(=O)C4(C)CCC32)C1 (stereo not given)
inactive: dose: 12.5 mg/kg/injection, schedule: Q01DX009 (ip), vehicle: distilled water + Tween-80 92 % of control | dose: 25.0 mg/kg/injection, schedule: Q01DX009 (ip), vehicle: distilled water + Tween-80 89 % of control and 96 % of control | dose: 50.0 mg/kg/injection, schedule: Q01DX009 (ip), vehicle: distilled water + Tween-80 107 % of control and 97 % of control | dose: 100.0 mg/kg/injection, schedule: Q01DX009 (ip), vehicle: distilled water + Tween-80 119 % of control and 121 % of control | dose: 200.0 mg/kg/injection, schedule: Q01DX009 (ip), vehicle: distilled water + Tween-80 107 % of control and 90 % of control

Cc1nn(C)c2ccc3ccccc3c(=O)c12
inactive: dose: 60.0 mg/kg/injection, schedule: Q01DX005 (ip), vehicle: Klucel (hydroxypropylcellulose) (HPC) 101 % of control | dose: 120.0 mg/kg/injection, schedule: Q01DX005 (ip), vehicle: Klucel (hydroxypropylcellulose) (HPC) 102 % of control | dose: 240.0 mg/kg/injection, schedule: Q01DX005 (ip), vehicle: Klucel (hydroxypropylcellulose) (HPC) 105 % of control

COc1cccc2c(NCCCCCO[N+](=O)[O-])cc[n+](C)c12
inactive: [1] 104 % of control | [3] 110 % of control | [4] 107 % of control

O=C(Nc1ccc(Nc2ccccc2)cc1)Nc1cc([N+](=O)[O-])ccc1Cl
inactive: dose: 60.0 mg/kg/injection, schedule: Q01DX005 (ip), vehicle: saline with Tween-80 90 % of control | dose: 120.0 mg/kg/injection, schedule: Q01DX005 (ip), vehicle: saline with Tween-80 98 % of control | dose: 240.0 mg/kg/injection, schedule: Q01DX005 (ip), vehicle: saline with Tween-80 103 % of control

CN=C(C#N)c1ccccc1
inactive: dose: 50.0 mg/kg/injection, schedule: Q01DX005 (ip), vehicle: saline with Tween-80 100 % of control | dose: 100.0 mg/kg/injection, schedule: Q01DX005 (ip), vehicle: saline with Tween-80 98 % of control | dose: 200.0 mg/kg/injection, schedule: Q01DX005 (ip), vehicle: saline with Tween-80 99 % of control

CNC(=O)C1CCCN1C(=O)C(Cl)Cl (stereo not given)
inactive: [7] 96 % of control | [8] 93 % of control and 96 % of control | [9] 86 % of control and 92 % of control

CC1CCCN2C(=O)CN(N3CCOCC3)CC(=O)N12 (stereo not given)
inactive: dose: 25.0 mg/kg/injection, schedule: Q04DX002 (ip), vehicle: saline with Tween-80 100 % of control | dose: 25.0 mg/kg/injection, schedule: Q04DX002 (ip), vehicle: saline 95 % of control | dose: 50.0 mg/kg/injection, schedule: Q04DX002 (ip), vehicle: saline with Tween-80 94 % of control | dose: 50.0 mg/kg/injection, schedule: Q04DX002 (ip), vehicle: saline 95 % of control | dose: 100.0 mg/kg/injection, schedule: Q04DX002 (ip), vehicle: saline with Tween-80 99 % of control | dose: 100.0 mg/kg/injection, schedule: Q04DX002 (ip), vehicle: saline 102 % of control | dose: 200.0 mg/kg/injection, schedule: Q04DX002 (ip), vehicle: saline with Tween-80 94 % of control | dose: 200.0 mg/kg/injection, schedule: Q04DX002 (ip), vehicle: saline 94 % of control

O=CNCO
inactive: dose: 250.0 mg/kg/injection, schedule: Q01DX005 (ip), vehicle: water 100 % of control | dose: 500.0 mg/kg/injection, schedule: Q01DX005 (ip), vehicle: water 101 % of control and 103 % of control | dose: 1000.0 mg/kg/injection, schedule: Q01DX005 (ip), vehicle: water 108 % of control and 110 % of control | dose: 2000.0 mg/kg/injection, schedule: Q01DX005 (ip), vehicle: water 114 % of control

CC(C)c1[nH]c2ccccc2c1Cn1ccnc1
inactive: dose: 50.0 mg/kg/injection, schedule: Q01DX005 (ip), vehicle: Klucel (hydroxypropylcellulose) (HPC) 100 % of control | dose: 100.0 mg/kg/injection, schedule: Q01DX005 (ip), vehicle: Klucel (hydroxypropylcellulose) (HPC) 114 % of control

CCC(C)C(N)C(=O)N1CCCC1C(=O)O (stereo not drawn) (H-Ile-Pro-OH; configuration not given here)
inactive: [10] 98 % of control | [11] 98 % of control | [12] 102 % of control

[Cl][Sn]([Cl])([c]1ccccc1)[c]1ccccc1.c1ccc2nc(-c3ccc4ccccc4n3)ccc2c1
inactive: dose: 7.5 mg/kg/injection, schedule: Q01DX005 (ip), vehicle: Klucel (hydroxypropylcellulose) (HPC) 100 % of control and 106 % of control | dose: 15.0 mg/kg/injection, schedule: Q01DX005 (ip), vehicle: Klucel (hydroxypropylcellulose) (HPC) 100 % of control and 113 % of control | dose: 30.0 mg/kg/injection, schedule: Q01DX005 (ip), vehicle: Klucel (hydroxypropylcellulose) (HPC) 104 % of control and 117 % of control

Nc1nnc2nc(CC(=O)c3ccc(F)cc3)c(CC(=O)c3ccc(F)cc3)nn12
inactive: [10] 104 % of control | [11] 106 % of control | [12] 100 % of control

O=C(O)/C(=C\c1ccncc1)c1cccc2ccccc12
inactive: dose: 50.0 mg/kg/injection, schedule: Q01DX009 (ip), vehicle: saline with Tween-80 101 % of control | dose: 100.0 mg/kg/injection, schedule: Q01DX009 (ip), vehicle: saline with Tween-80 101 % of control | dose: 200.0 mg/kg/injection, schedule: Q01DX009 (ip), vehicle: saline with Tween-80 111 % of control | dose: 400.0 mg/kg/injection, schedule: Q01DX009 (ip), vehicle: saline with Tween-80 98 % of control

CNc1nc2c(N)ncnc2n1C1OC(CO)C(O)C1O (stereo not given)
inactive: dose: 6.25 mg/kg/injection, schedule: Q01DX009 (ip), vehicle: suspension in saline 94 % of control | dose: 12.5 mg/kg/injection, schedule: Q01DX009 (ip), vehicle: suspension in saline 112 % of control

CCCC/[N+]([O-])=N/O
inactive: dose: 3.0 mg/kg/injection, schedule: Q01DX005 (ip), vehicle: Klucel (hydroxypropylcellulose) (HPC) 103 % of control | dose: 6.0 mg/kg/injection, schedule: Q01DX005 (ip), vehicle: Klucel (hydroxypropylcellulose) (HPC) 95 % of control | dose: 12.0 mg/kg/injection, schedule: Q01DX005 (ip), vehicle: Klucel (hydroxypropylcellulose) (HPC) 100 % of control | dose: 24.0 mg/kg/injection, schedule: Q01DX005 (ip), vehicle: Klucel (hydroxypropylcellulose) (HPC) 101 % of control

Nc1[nH]c(=O)ncc1C(=O)NC(CO)C(=O)O (stereo not given)
inactive: dose: 6.25 mg/kg/injection, schedule: Q01DX009 (ip), vehicle: saline with Tween-80 90 % of control | dose: 12.5 mg/kg/injection, schedule: Q01DX009 (ip), vehicle: saline with Tween-80 100 % of control | dose: 25.0 mg/kg/injection, schedule: Q01DX009 (ip), vehicle: saline with Tween-80 95 % of control

CCOc1ccc(NC(=O)c2c(N)n(C)c(=O)n(C)c2=O)cc1
inactive: [4] 88 % of control | [6] 93 % of control

CCCC1CN2CCc3cc(OC)c(OC)cc3C2CC1=O (stereo not given)
inactive: [7] 100 % of control and 104 % of control | [8] 112 % of control and 115 % of control | [9] 120 % of control
